According to PubChem BioAssay AID1963976 (Molecular Pharmacology Branch, DTP, NCI, 2024):

System: 435261-313-R-J1-PDC tumor spheroid viability
Test: Anticancer human tumor 435261-313-R-J1-PDC patient-derived colon adenocarcinoma cell line growth inhibition [PI3K]
Details: spheroids with HUVEC and MSC; for IC50: curve of first compound; for viability, T/C: stronger effect = lower value
From the text: Combinatorial screen of targeted agents with the PI3K inhibitors inavolisib, alpelisib, duvelisib, and copanlisib in multi-cell type tumor spheroids
A high-throughput screen of multi-cell type tumor spheroids was designed to identify active combinations of targeted small molecules and PI3K pathway inhibitors. Complex spheroids include a stromal component modeled by human endothelial cells (HUVEC) and fibroblasts modeled by human mesenchymal stem cells (MSCs). The concentration ranges selected for each drug and investigational agent were based upon clinically achievable concentrations if the clinical Cmax of the agent was known.
Compounds. The drugs and investigational agents: inavolisib (NSC800729), alpelisib (NSC765974), duvelisib (NSC772469), copanlisib (NSC816437), ipatasertib (NSC767898), afuresertib (NSC778305), talazoparib (NSC767125), sapanisertib (NSC764658), selumetinib (NSC741078), tovorafenib (DAY101, NSC766906), vemurafenib (NSC761431), ravoxertinib (NSC781343), sotorasib (NSC818433), MRTX1133 (NSC 836407), abemaciclib (NSC 768073), palbociclib (NSC758247), venetoclax (NSC 766270), SY5609 (NSC837396), enzalutamide (NSC755605), and darolutamide (NSC825331), were obtained from the National Cancer Institute (NCI) Developmental Therapeutics Program Chemical Repository. The FDA-approved anticancer drug set is available from the NCI Developmental Therapeutics Program. […] The stock solutions were prepared in dimethyl sulfoxide (DMSO, Sigma-Aldrich, St. Louis, MO, cat. D2650) at 800-fold the tested concentration and stored at -70 degrees C prior to their use. All drugs and investigational agents were tested over a range starting from a high concentration at or near the clinical Cmax and decreasing in half-log increments. If the clinical Cmax for an agent had not been determined, the highest concentration tested was 10 microM.
Cell Culture. All cells were maintained in an incubator at 37 degrees C and 5% CO2 with 95% humidity. The PDC lines were cultured according to standard operating procedures established by the NCI PDMR (https://pdmr.cancer.gov/sops/default.htm). All PDCs were thawed and cultured in Matrigel-coated flasks prepared with a working solution of 1X Ham's F-12 nutrient mix, without supplementation (Invitrogen, Waltham, MA, cat. 11765054), 100 U/mL penicillin-streptomycin (Invitrogen, cat. 15140122), and 2.5% Matrigel (Corning Inc., Corning, NY, cat. 354248) for the first three passages. The 354836-022-R-J1-PDC, 475296-252-R-J1-PDC, and 997726-040-R-J2-PDC lines were cultured in 6A media, which includes advanced DMEM/F-12 (Thermo Fisher Scientific, cat. 12634028), 10 mM HEPES (Thermo Fisher Scientific, cat. 15630080), 1X GlutaMAX supplement (Thermo Fisher Scientific, cat. 35050061), 0.1 mg/mL primocin (InvivoGen, San Diego, CA, cat. ant-pm-2), 10% defined fetal bovine serum, heat inactivated (HyClone Laboratories Inc., Logan, UT, cat. SH30070.03HI), 50% L-WRN conditioned media (ATCC, cat. CRL-3276), 1.25 mM N-Acetyl-L-cysteine (Sigma-Aldrich, cat. A9165), 10 mM nicotinamide (Sigma-Aldrich, cat. N0636), 1X B-27 supplement (Thermo Fisher Scientific, cat. 17504044), 1X N-2 supplement (Thermo Fisher Scientific, cat. 17502048), and 10 microM Y-27632 dihydrochloride (Tocris Bioscience, Bristol, United Kingdom, cat. 1254). The 624824-186-R-J2-PDC line was cultured in 6C/Colon 1B media, which includes all 6A media components plus 50 ng/mL human EGF recombinant protein (Thermo Fisher Scientific, cat. PHG0311). […]
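Further: spheroids exposed to compounds for 7 days.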

## Cn1ncnc1[C@H]1c2n[nH]c(=O)c3cc(F)cc(c23)N[C@@H]1c1ccc(F)cc1 + COc1c(OCCCN2CCOCC2)ccc2c3n(c(=NC(=O)c4cnc(N)nc4)nc12)CCN3
Second compound 0.00316 µM
  IC50: 47.7 nM
Second compound 0.01 µM
  IC50: 0.895 nM
Second compound 0.0316 µM
  IC50: < 0.316 nM
Second compound 0.1 µM
  IC50: < 0.316 nM
Second compound 0.316 µM
  IC50: < 0.316 nM
Second compound 1 µM
  IC50: < 0.316 nM
Second compound 0.00316 µM, first compound 0.000316 µM
  viability, T/C: 87%
Second compound 0.00316 µM, first compound 0.001 µM
  viability, T/C: 41.6%
Second compound 0.00316 µM, first compound 0.00316 µM
  viability, T/C: 76%
Second compound 0.00316 µM, first compound 0.01 µM
  viability, T/C: 66.4%
Second compound 0.00316 µM, first compound 0.0316 µM
  viability, T/C: 55%
Second compound 0.00316 µM, first compound 0.1 µM
  viability, T/C: 39%
Second compound 0.01 µM, first compound 0.000316 µM
  viability, T/C: 62.5%
Second compound 0.01 µM, first compound 0.001 µM
  viability, T/C: 51%
Second compound 0.01 µM, first compound 0.00316 µM
  viability, T/C: 36.7%
Second compound 0.01 µM, first compound 0.01 µM
  viability, T/C: 52.7%
Second compound 0.01 µM, first compound 0.0316 µM
  viability, T/C: 58.7%
Second compound 0.01 µM, first compound 0.1 µM
  viability, T/C: 35%
Second compound 0.0316 µM, first compound 0.000316 µM
  viability, T/C: 24.6%
Second compound 0.0316 µM, first compound 0.001 µM
  viability, T/C: 23%
Second compound 0.0316 µM, first compound 0.00316 µM
  viability, T/C: 27.1%
Second compound 0.0316 µM, first compound 0.01 µM
  viability, T/C: 21.2%
Second compound 0.0316 µM, first compound 0.0316 µM
  viability, T/C: 21.9%
Second compound 0.0316 µM, first compound 0.1 µM
  viability, T/C: 22.5%
Second compound 0.1 µM, first compound 0.000316 µM
  viability, T/C: 17.3%
Second compound 0.1 µM, first compound 0.001 µM
  viability, T/C: 16.6%
Second compound 0.1 µM, first compound 0.00316 µM
  viability, T/C: 20.1%
Second compound 0.1 µM, first compound 0.01 µM
  viability, T/C: 15.8%
Second compound 0.1 µM, first compound 0.0316 µM
  viability, T/C: 16.8%
Second compound 0.1 µM, first compound 0.1 µM
  viability, T/C: 14.4%
Second compound 0.316 µM, first compound 0.000316 µM
  viability, T/C: 8.3%
Second compound 0.316 µM, first compound 0.001 µM
  viability, T/C: 7.7%
Second compound 0.316 µM, first compound 0.00316 µM
  viability, T/C: 6.69%
Second compound 0.316 µM, first compound 0.01 µM
  viability, T/C: 7.31%
Second compound 0.316 µM, first compound 0.0316 µM
  viability, T/C: 8.06%
Second compound 0.316 µM, first compound 0.1 µM
  viability, T/C: 7.38%
Second compound 1 µM, first compound 0.000316 µM
  viability, T/C: 3.97%
Second compound 1 µM, first compound 0.001 µM
  viability, T/C: 3.84%
Second compound 1 µM, first compound 0.00316 µM
  viability, T/C: 3.78%
Second compound 1 µM, first compound 0.01 µM
  viability, T/C: 3.5%
Second compound 1 µM, first compound 0.0316 µM
  viability, T/C: 4.54%
Second compound 1 µM, first compound 0.1 µM
  viability, T/C: 2.9%
